Source: patent publication EP0153845A2, “CRF analogs” (THE SALK INSTITUTE FOR BIOLOGICAL STUDIES, priority 1984, dated 1985)
Square brackets hold non-standard residues; d marks the D form. Ends that are not written are not given here. Peptide text beside a SMILES is read from it. * marks the point of attachment. Nle = CCCC[C@H](N)C(=O)O; Orn = NCCC[C@H](N)C(=O)O; Bz = O=C(c1ccccc1)*

Legend:
[1] = target: T1, cultured rat pituitary cells (Rattus norvegicus, UniProt P35353); assay: Stimulation of ACTH and β-endorphin secretion by cultured rat pituitary cells (general procedure of Example III); assay type: cell-based; conditions: for secretion of ACTH and β-END-LI: general procedure of Example III
T1 sequence (P35353 24-415): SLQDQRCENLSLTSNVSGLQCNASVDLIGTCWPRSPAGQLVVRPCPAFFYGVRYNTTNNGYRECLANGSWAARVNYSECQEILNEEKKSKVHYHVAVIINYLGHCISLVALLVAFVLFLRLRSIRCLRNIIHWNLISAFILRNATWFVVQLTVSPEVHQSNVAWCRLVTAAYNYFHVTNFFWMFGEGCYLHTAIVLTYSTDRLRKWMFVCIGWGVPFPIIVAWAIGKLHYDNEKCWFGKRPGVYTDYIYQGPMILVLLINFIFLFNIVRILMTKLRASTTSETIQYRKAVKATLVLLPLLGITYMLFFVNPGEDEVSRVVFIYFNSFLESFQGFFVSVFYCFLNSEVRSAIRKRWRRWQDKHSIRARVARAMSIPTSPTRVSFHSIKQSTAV
Experimental: The synthetic peptide AHC and oCRF were examined for their effects on the secretion of ACTH and B-endorphin in vitro and was also in vivo. The potency of synthetic oCRF to stimulate the secretion of ACTH and β-endorphin by cultured rat pituitary cells was measured using the procedure as generally set forth in Endocrinology, 91, 562 (1972). […] In.vivo testing is carried out using the general procedure set forth in C. Rivier et al., Science, 218, 377 (1982).

[2] = Lowering of blood pressure, in vivo testing by the general procedure of Example III

| Molecule | secretion of ACTH and β-END-LI [1] | lowering of blood pressure [2] | secretory response to maximal concentrations ([1]; maximal (1-5 nM) concentrations) |
| --- | --- | --- | --- |
| H-SQEPPISLDLTFALLREMLEMAKAEQEAEQAALNRLLLEEA-NH2 [[Ala^13]-AHC] | stimulates | very significant lowering of blood pressure | – |
| H-SQEPPISLDLTFHLLRE[Nle]LE[Nle]AKAEQEAEQAALNRLLLEEA-NH2 [[Nle^18, ^21]-AHC] | stimulates | very significant lowering of blood pressure | – |
| CCCC[C@H](NC(=O)[C@@H](NC(=O)[C@H](CC(C)C)NC(=O)[C@H](CC(=O)O)NC(=O)[C@H](CC(C)C)NC(=O)[C@H](CO)NC(=O)[C@@H](NC(=O)[C@@H]1CCCN1C(=O)[C@@H]1CCCN1C(=O)[C@H](CCC(=O)O)NC(=O)CNC(=O)c1ccccc1)[C@@H](C)CC)[C@@H](C)O)C(=O)N[C@@H](Cc1c[nH]cn1)C(=O)N[C@@H](CC(C)C)C(=O)N[C@@H](CC(C)C)C(=O)N[C@@H](CCCNC(=N)N)C(=O)N[C@@H](CCC(=O)O)C(=O)N[C@H](C(=O)N[C@@H](CC(C)C)C(=O)N[C@@H](CCC(=O)O)C(=O)N[C@@H](CCSC)C(=O)N[C@@H](C)C(=O)N[C@@H](CCCNC(=N)N)C(=O)N[C@@H](C)C(=O)N[C@@H](CCC(=O)O)C(=O)N[C@@H](CCC(N)=O)C(=O)N[C@@H](CC(C)C)C(=O)N[C@@H](C)C(=O)N[C@@H](CCC(=O)O)C(=O)N[C@@H](CCC(N)=O)C(=O)N[C@@H](C)C(=O)N[C@@H](Cc1c[nH]cn1)C(=O)N[C@@H](CO)C(=O)N[C@@H](CC(N)=O)C(=O)N[C@@H](CCCNC(=N)N)C(=O)N[C@@H](CCCNC(=N)N)C(=O)N[C@@H](CC(C)C)C(=O)N[C@@H](CCSC)C(=O)N[C@@H](CCC(=O)O)C(=O)N[C@H](C(=O)N[C@H](C(N)=O)[C@@H](C)CC)[C@@H](C)CC)C(C)C (Bz-GEPPISLDLT[Nle]HLLREVLEMARAEQLAEQAHSNRRLMEII-NH2) | stimulates | very significant lowering of blood pressure | – |
| CCCC[C@H](NC(=O)[C@H](CCC(=O)O)NC(=O)[C@H](CC(C)C)NC(=O)[C@H](CCCC)NC(=O)[C@H](CCC(=O)O)NC(=O)[C@H](CCCNC(=N)N)NC(=O)[C@H](CC(C)C)NC(=O)[C@H](CC(C)C)NC(=O)[C@H](Cc1c[nH]cn1)NC(=O)[C@H](Cc1ccccc1)NC(=O)[C@@H](NC(=O)[C@H](CC(C)C)NC(=O)[C@H](CC(=O)O)NC(=O)[C@H](CC(C)C)NC(=O)[C@H](CO)NC(=O)[C@@H](NC(=O)[C@@H]1CCCN1)[C@@H](C)CC)[C@@H](C)O)C(=O)N[C@@H](C)C(=O)N[C@@H](CCCNC(=N)N)C(=O)N[C@@H](C)C(=O)N[C@@H](CCC(=O)O)C(=O)N[C@@H](CCC(N)=O)C(=O)N[C@@H](CCC(=O)O)C(=O)N[C@@H](C)C(=O)N[C@@H](CCC(=O)O)C(=O)N[C@@H](CCC(N)=O)C(=O)N[C@@H](C)C(=O)N[C@@H](C)C(=O)N[C@@H](CC(C)C)C(=O)N[C@@H](CC(N)=O)C(=O)N[C@@H](CCCNC(=N)N)C(=O)N[C@@H](CC(C)C)C(=O)N[C@@H](CC(C)C)C(=O)N[C@@H](CC(C)C)C(=O)N[C@@H](CCC(=O)O)C(=O)N[C@@H](CCC(=O)O)C(=O)N[C@@H](C)C(N)=O [[Nle^18,21, Arg^23]-AHC(5-41)] (H-PISLDLTFHLLRE[Nle]LE[Nle]ARAEQEAEQAALNRLLLEEA-NH2) | stimulates | very significant lowering of blood pressure | – |
| H-SQEPPISLDLTFHLLREVLE[Nle]TKADQLAEQAHSNRKLLDIA-NH2 [[Nle^21,Glu^29]-oCRF] | stimulates | very significant lowering of blood pressure | – |
| H-SEEPPISLDLTFHLLREVLE[Nle]ARAEQLAQQAYLNRKLMEEI-NH2 [[Nle^21, Tyr^32, Leu^33, Glu^40]-rCRF] | stimulates | very significant lowering of blood pressure to a greater extent than rCRF | – |
| H-SQEPPISLDLTLELLREMLEMAKAEQEAEQAALNRLYLEEA-NH2 [[Leu^12, G1u^13, Tyr^37]-AHC] | stimulates | very significant lowering of blood pressure | – |
| SQEPPISLDLTFHLLREVLEMA[Orn]AEQLAEQAHSNRKLLEII-NH2 [[Gln^2, Orn^23, Glu^29, Leu^38]-rCRF] | stimulates | very significant lowering of blood pressure | – |
| H-SQEPPISLDLTFHLLRE[Nle]LE[Nle]TKADQLRQQAHSNRKLLDIA-NH2 [[Nle^18,21,Arg^28]-oCRF] | stimulates | very significant lowering of blood pressure | – |
| H-YSEEPPISLDLTFHLLREVLEMARAEQLAEQAHSNRKLMEII-NH2 [[Tyr-Ser^1, Glu^29]-rCRF] | stimulates | very significant lowering of blood pressure | – |
| Ac-PPISLDLTFHLLREVLEMARAEQLAEQAHSNRKYMEEI-NH2 | stimulates | very significant lowering of blood pressure to a greater extent than rCRF | – |
| CCCC[C@H](NC(=O)[C@H](CCC(=O)O)NC(=O)[C@H](CC(C)C)NC(=O)[C@@H](NC(=O)[C@H](CCC(=O)O)NC(=O)[C@H](CCCNC(=N)N)NC(=O)[C@H](CC(C)C)NC(=O)[C@H](CC(C)C)NC(=O)[C@H](Cc1c[nH]cn1)NC(=O)[C@H](Cc1ccccc1)NC(=O)[C@@H](NC(=O)[C@H](CC(C)C)NC(=O)[C@H](CC(=O)O)NC(=O)[C@H](CC(C)C)NC(=O)[C@H](CO)NC(=O)[C@@H](NC(=O)[C@@H]1CCCN1C(=O)[C@H]1CCCN1)[C@@H](C)CC)[C@@H](C)O)C(C)C)C(=O)N[C@@H](C)C(=O)N[C@@H](CCCNC(=N)N)C(=O)N[C@@H](C)C(=O)N[C@@H](CCC(=O)O)C(=O)N[C@@H](CCC(N)=O)C(=O)N[C@@H](CC(C)C)C(=O)N[C@@H](C)C(=O)N[C@@H](CCC(N)=O)C(=O)N[C@@H](CCC(N)=O)C(=O)N[C@@H](C)C(=O)N[C@@H](Cc1c[nH]cn1)C(=O)N[C@@H](CO)C(=O)N[C@@H](CC(N)=O)C(=O)N[C@@H](CCCNC(=N)N)C(=O)N[C@@H](CCCCN)C(=O)N[C@@H](CC(C)C)C(=O)N[C@@H](CCSC)C(=O)N[C@@H](CCC(=O)O)C(=O)N[C@H](C(=O)N[C@H](C(N)=O)[C@@H](C)CC)[C@@H](C)CC [[D-Pro^4, Nle^21,38]-rCRF(4-41)] (H-[dP]PISLDLTFHLLREVLE[Nle]ARAEQLAQQAHSNRKLMEII-NH2) | stimulates the secretion of ACTH and B-END-LI in an amount greater than oCRF | very significant lowering of blood pressure | – |
| H-SQEPPISLDLTFHLLREMLEMAKAEQEAEQAALNRLLLEEA-NH2 [AHC] | – | – | at a plateau level |
| H-SQEPPISLDLTFHLLREVLEMTRADQLAQQAHSNRRLLDIA-NH2 [[Arg^23,36]-oCRF] | – | very significant lowering of blood pressure | – |
| CCCC[C@H](NC(=O)[C@H](CCC(=O)O)NC(=O)[C@H](CC(C)C)NC(=O)[C@H](CCCC)NC(=O)[C@H](CCC(=O)O)NC(=O)[C@H](CCCNC(=N)N)NC(=O)[C@H](CC(C)C)NC(=O)[C@H](CC(C)C)NC(=O)[C@H](Cc1c[nH]cn1)NC(=O)[C@H](Cc1ccccc1)NC(=O)[C@@H](NC(=O)[C@H](CC(C)C)NC(=O)[C@H](CC(=O)O)NC(=O)[C@H](CC(C)C)NC(=O)[C@H](CO)NC(=O)[C@@H](NC(=O)[C@@H]1CCCN1C(=O)[C@H]1CCCN1C(=O)[C@H](N)Cc1ccc(O)cc1)[C@@H](C)CC)[C@@H](C)O)C(=O)N[C@@H](C)C(=O)N[C@@H](CCCCN)C(=O)N[C@@H](C)C(=O)N[C@@H](CCC(=O)O)C(=O)N[C@@H](CCC(N)=O)C(=O)N[C@@H](CCC(=O)O)C(=O)N[C@@H](C)C(=O)N[C@@H](CCC(=O)O)C(=O)N[C@@H](CCC(N)=O)C(=O)N[C@@H](C)C(=O)N[C@@H](C)C(=O)N[C@@H](CC(C)C)C(=O)N[C@@H](CC(N)=O)C(=O)N[C@@H](CCCNC(=N)N)C(=O)N[C@@H](CC(C)C)C(=O)N[C@@H](CC(C)C)C(=O)N[C@@H](CC(C)C)C(=O)N[C@@H](CCC(=O)O)C(=O)N[C@@H](CCC(=O)O)C(=O)N[C@@H](C)C(N)=O [[D-Tyr^3, D-Pro^4, Nle^18,21]-AHC(3-41)] (H-[dY][dP]PISLDLTFHLLRE[Nle]LE[Nle]AKAEQEAEQAALNRLLLEEA-NH2) | – | very significant lowering of blood pressure | – |
| CCCC[C@H](NC(=O)[C@H](CCC(=O)O)NC(=O)[C@H](CC(C)C)NC(=O)[C@H](CCCC)NC(=O)[C@H](CCC(=O)O)NC(=O)[C@H](CCCNC(=N)N)NC(=O)[C@H](CC(C)C)NC(=O)[C@H](CC(C)C)NC(=O)[C@H](Cc1c[nH]cn1)NC(=O)[C@H](Cc1ccccc1)NC(=O)[C@@H](NC(=O)[C@H](CC(C)C)NC(=O)[C@H](CC(=O)O)NC(=O)[C@H](CC(C)C)NC(=O)[C@H](CO)NC(=O)[C@@H](NC(=O)[C@@H]1CCCN1C(=O)[C@H]1CCCN1)[C@@H](C)CC)[C@@H](C)O)C(=O)N[C@@H](C)C(=O)N[C@@H](CCCCN)C(=O)N[C@@H](C)C(=O)N[C@@H](CCC(=O)O)C(=O)N[C@@H](CCC(N)=O)C(=O)N[C@@H](CCC(=O)O)C(=O)N[C@@H](C)C(=O)N[C@@H](CCC(=O)O)C(=O)N[C@@H](CCC(N)=O)C(=O)N[C@@H](C)C(=O)N[C@@H](C)C(=O)N[C@@H](CC(C)C)C(=O)N[C@@H](CC(N)=O)C(=O)N[C@@H](CCCNC(=N)N)C(=O)N[C@@H](CC(C)C)C(=O)N[C@@H](CC(C)C)C(=O)N[C@@H](CC(C)C)C(=O)N[C@@H](CCC(=O)O)C(=O)N[C@@H](CCC(=O)O)C(=O)N[C@@H](C)C(N)=O [[D-Pro^4, Nle^18,21]-AHC(4-41)] (H-[dP]PISLDLTFHLLRE[Nle]LE[Nle]AKAEQEAEQAALNRLLLEEA-NH2) | – | very significant lowering of blood pressure | – |
